# Results taken from US12714105B2, “Herbicidal mixtures and compositions and methods of use” (priority 2020, dated 2026).
# Key:
# Assay type in all cases: in vivo
# [1] = tested on: Broadleaf weeds (dandelions, Oxalis, and white clover); assay: Pre-emergent control of Broadleaf weeds in Kentucky bluegrass (field trial); conditions: for Percent Amount of Broadleaf weeds present in Test plots: Percent of SLWC AI's 0, Isoxaben Rate 1130 g ai/ha
# Experimental: (§1) A trial of formulations of the present invention (dithiopyr, isoxaben, MCPP, 2,4-D, and dicamba, e.g., dithiopyr and SLWC) was carried out and is shown in Table 5, below. The trial was initiated on Mar. 12, 2019 on Kentucky bluegrass. The turf was maintained at a height if 2½ inches and watered (twice weekly to ½ inch). Pre-emergent control of Broadleaf weeds (dandelions, Oxalis, and white clover) was evaluated as a percentage of the area in the test plots (1×1 meter and 3 replicates).
# [2] = tested on: Broadleaf weeds (dandelions, Oxalis, plantain and white clover); assay: Pre-emergent control of Broadleaf weeds in Tall Fescue (field trial); conditions: for Percent Amount of Broadleaf weeds present in Test plots: Percent of SLWC AI's 0, Isoxaben Rate 1144 g ai/ha
# Experimental: as §1, with “of the formulation” for “of formulations”, “Table 4,” for “Table 5,”, “on Tall Fescue.” for “on Kentucky bluegrass.”, “at the” for “at a”, “height of” for “height if”, “Oxalis, plantain” for “Oxalis,”
# [3] = tested on: broadleaf weeds (Oxalis, Parsley-Preriot and white clover); assay: Pre-emergent control of broadleaf weeds in Bermuda grass (field trial); conditions: for Percent Amount of Broadleaf weeds present in Test plots: Percent of SLWC AI's 0, Isoxaben Rate 1144 g ai/ha
# Experimental: A trial of formulations of the present invention (dithiopyr, isoxaben, MCPP, 2,4-D, and dicamba, e.g., dithiopyr and SLWC) was carried out and is shown in Table 6, below. The trial was initiated on Mar. 12, 2019 on Bermuda grass. The turf was maintained at a height of 1½ inches and watered (weekly to ½ inch). Pre-emergent control of broadleaf weeds (Oxalis, Parsley-Preriot and white clover) were evaluated as a percentage of the area in the test plots (1×1 meter and 3 replicates).
# Large Crabgrass [4] = assay: Pre-emergent control of Large Crabgrass in Kentucky bluegrass turf (field trial)
# Experimental: A trial of formulations of the present invention (dithiopyr, isoxaben, MCPP, 2,4-D, and dicamba) was carried out and is shown in Table 2, below. The trial was initiated on Mar. 12, 2019 on Kentucky bluegrass. The turf was maintained at a height of 2½ inches, watered (twice weekly to ½ inch) and fertilized at local recommendations (0.5 lbs. once June 15th). Pre-emergent control of Large Crabgrass was evaluated as a percentage of the area in the test plots (1 xl meter and 3 replicates).
# Large Crabgrass [5] = assay: Pre-emergent control of Large Crabgrass in Tall Fescue turf (field trial)
# Experimental: A trial of formulations of the present invention (dithiopyr, isoxaben, MCPP, 2,4-D, and dicamba; e.g., dithiopyr and SLWC) was carried out and is shown in Table 3, below. The trial was initiated on Mar. 12, 2019 on Tall Fescue. The turf was maintained at the height of 2½ inches and watered (twice weekly to ½ inch). Pre-emergent control of Large Crabgrass was evaluated as a percentage of the area in the test plots (1 xl meter and 3 replicates).
# [6] = 69 DA-A, dithiopyr only, Dithiopyr Rate 280 g ai/ha
# [7] = 83 DA-A, dithiopyr only, Dithiopyr Rate 280 g ai/ha
# [8] = 111 DA-A, dithiopyr only, Dithiopyr Rate 280 g ai/ha
# [9] = 125 DA-A, dithiopyr only, Dithiopyr Rate 280 g ai/ha
# [10] = 139 DA-A, dithiopyr only, Dithiopyr Rate 280 g ai/ha
# [11] = 161 DA-A, dithiopyr only, Dithiopyr Rate 280 g ai/ha
# [12] = 191 DA-A, dithiopyr only, Dithiopyr Rate 280 g ai/ha
compound,measurement,setting,value
"CSC(=O)c1c(C(F)F)nc(C(F)(F)F)c(C(=O)SC)c1CC(C)C [Dithiopyr (Dimension), Dimethyl 2-(difluoromethyl)-4-(2-methylpropyl)-6-(trifluoromethyl)pyridine-3,5-dicarbothioate]",effect of the addition of Dithiopyr to SLWC on the pre-emergent control of broadleaf weeds provided by Isoxaben,[1]; in words,did not affect
same,effect of the addition of Dithiopyr to SLWC on the pre-emergent control of broadleaf weeds provided by Isoxaben,[2]; in words,did not affect
same,effect of the addition of Dithiopyr to SLWC on the pre-emergent control of broadleaf weeds provided by Isoxaben,[3]; in words,did not affect
same,"Large Crabgrass, percentage of the area in the test plots",Large Crabgrass [4]; [6],0%
same,"Large Crabgrass, percentage of the area in the test plots",Large Crabgrass [4]; [7],0%
same,"Large Crabgrass, percentage of the area in the test plots",Large Crabgrass [4]; [8],5.7%
same,"Large Crabgrass, percentage of the area in the test plots",Large Crabgrass [4]; [9],5%
same,"Large Crabgrass, percentage of the area in the test plots",Large Crabgrass [4]; [10],16%
same,"Large Crabgrass, percentage of the area in the test plots",Large Crabgrass [4]; [11],26.7%
same,"Large Crabgrass, percentage of the area in the test plots",Large Crabgrass [4]; [12],40%
same,effect of the addition of Dithiopyr to SLWC on the pre-emergent control of Large Crabgrass,Large Crabgrass [4]; in words,did not affect
same,"Large Crabgrass, percentage of the area in the test plots",Large Crabgrass [5]; [6],0%
same,"Large Crabgrass, percentage of the area in the test plots",Large Crabgrass [5]; [7],0%
same,"Large Crabgrass, percentage of the area in the test plots",Large Crabgrass [5]; [8],0.7%
same,"Large Crabgrass, percentage of the area in the test plots",Large Crabgrass [5]; [9],5%
same,"Large Crabgrass, percentage of the area in the test plots",Large Crabgrass [5]; [10],7.3%
same,"Large Crabgrass, percentage of the area in the test plots",Large Crabgrass [5]; [11],43.3%
same,"Large Crabgrass, percentage of the area in the test plots",Large Crabgrass [5]; [12],50%
same,effect of the addition of Dithiopyr to SLWC on the pre-emergent control of Large Crabgrass,Large Crabgrass [5]; in words,did not affect
"CCC(C)(CC)c1cc(NC(=O)c2c(OC)cccc2OC)on1 [Isoxaben (Gallery 75 DF), Isoxaben]",Percent Amount of Broadleaf weeds present in Test plots,[1]; 6 DA-A,4.3%
same,Percent Amount of Broadleaf weeds present in Test plots,[1]; 29 DA-A,5%
same,Percent Amount of Broadleaf weeds present in Test plots,[1]; 55 DA-A,14%
same,Percent Amount of Broadleaf weeds present in Test plots,[1]; 83 DA-A,9.7%
same,Percent Amount of Broadleaf weeds present in Test plots,[1]; 111 DA-A,17.3%
same,Percent Amount of Broadleaf weeds present in Test plots,[1]; 125 DA-A,6.3%
same,Percent Amount of Broadleaf weeds present in Test plots,[1]; 139 DA-A,7.7%
same,Percent Amount of Broadleaf weeds present in Test plots,[1]; 161 DA-A,1.7%
same,Percent Amount of Broadleaf weeds present in Test plots,[2]; 6 DA-A,3.3%
same,Percent Amount of Broadleaf weeds present in Test plots,[2]; 29 DA-A,2.7%
same,Percent Amount of Broadleaf weeds present in Test plots,[2]; 55 DA-A,2%
same,Percent Amount of Broadleaf weeds present in Test plots,[2]; 83 DA-A,8.3%
same,Percent Amount of Broadleaf weeds present in Test plots,[2]; 111 DA-A,2.7%
same,Percent Amount of Broadleaf weeds present in Test plots,[2]; 125 DA-A,0.7%
same,Percent Amount of Broadleaf weeds present in Test plots,[2]; 139 DA-A,4%
same,Percent Amount of Broadleaf weeds present in Test plots,[2]; 161 DA-A,0%
same,Percent Amount of Broadleaf weeds present in Test plots,[3]; 6 DA-A,6.3%
same,Percent Amount of Broadleaf weeds present in Test plots,[3]; 29 DA-A,8.3%
same,Percent Amount of Broadleaf weeds present in Test plots,[3]; 55 DA-A,11%
same,Percent Amount of Broadleaf weeds present in Test plots,[3]; 83 DA-A,3.3%
same,Percent Amount of Broadleaf weeds present in Test plots,[3]; 111 DA-A,3%
same,Percent Amount of Broadleaf weeds present in Test plots,[3]; 125 DA-A,0%
same,Percent Amount of Broadleaf weeds present in Test plots,[3]; 139 DA-A,0.7%
same,Percent Amount of Broadleaf weeds present in Test plots,[3]; 161 DA-A,0.3%
same,"Large Crabgrass, percentage of the area in the test plots","Large Crabgrass [4]; 69 DA-A, isoxaben only, LR (labelled rate)",0%
same,"Large Crabgrass, percentage of the area in the test plots","Large Crabgrass [4]; 83 DA-A, isoxaben only, LR (labelled rate)",0%
same,"Large Crabgrass, percentage of the area in the test plots","Large Crabgrass [4]; 111 DA-A, isoxaben only, LR (labelled rate)",6%
same,"Large Crabgrass, percentage of the area in the test plots","Large Crabgrass [4]; 125 DA-A, isoxaben only, LR (labelled rate)",15%
same,"Large Crabgrass, percentage of the area in the test plots","Large Crabgrass [4]; 139 DA-A, isoxaben only, LR (labelled rate)",30%
same,"Large Crabgrass, percentage of the area in the test plots","Large Crabgrass [4]; 161 DA-A, isoxaben only, LR (labelled rate)",28.3%
same,"Large Crabgrass, percentage of the area in the test plots","Large Crabgrass [4]; 191 DA-A, isoxaben only, LR (labelled rate)",73.3%
same,"Large Crabgrass, percentage of the area in the test plots","Large Crabgrass [5]; 69 DA-A, isoxaben only (rate not given)",0%
same,"Large Crabgrass, percentage of the area in the test plots","Large Crabgrass [5]; 83 DA-A, isoxaben only (rate not given)",0%
same,"Large Crabgrass, percentage of the area in the test plots","Large Crabgrass [5]; 111 DA-A, isoxaben only (rate not given)",7.7%
same,"Large Crabgrass, percentage of the area in the test plots","Large Crabgrass [5]; 125 DA-A, isoxaben only (rate not given)",16%
same,"Large Crabgrass, percentage of the area in the test plots","Large Crabgrass [5]; 139 DA-A, isoxaben only (rate not given)",21.7%
same,"Large Crabgrass, percentage of the area in the test plots","Large Crabgrass [5]; 161 DA-A, isoxaben only (rate not given)",58.3%
same,"Large Crabgrass, percentage of the area in the test plots","Large Crabgrass [5]; 191 DA-A, isoxaben only (rate not given)",63.3%
